In brackets after ≈: the same amount, converted by molar mass.
How the values were obtained:
[1] = Selectivity ratio of MIC=<90 for resistant Mycobacterium tuberculosis harboring PKS13 mutant to MIC=<90 for Mycobacterium tuberculosis H37Rv
[2] = test system: Mycobacterium tuberculosis; test: Antitubercular activity against resistant Mycobacterium tuberculosis harboring PKS13 mutant after 12 to 24 hrs by MABA; type: functional
[3] = test system: Mycobacterium tuberculosis; test: Antitubercular activity against isoniazid/rifampicin/fluoroquinolone-resistant Mycobacterium tuberculosis; type: functional

SMILES	Selectivity ratio [1]	MIC=<90 [2] [µg/mL]	MIC [3] [µM]
CCOC(=O)c1c(-c2ccc(F)cc2)oc2ccc(O)c(CN3CCCCC3)c12	8	4 (≈ 10.1 µM)	
CCOC(=O)c1c(NC(=O)c2c(F)c(F)c(F)c(F)c2F)sc2c1CCN(CC)C2			0.2 to 0.4 (≈ 0.0897 to 0.179 µg/mL)
COc1ccc2c(c1)oc(=O)c1c2oc2ccc(O)c(CN3CCCCC3)c21	64	16 (≈ 42.2 µM)	
O=c1oc2ccccc2c2oc3ccc(O)c(CN4CCCCC4)c3c12	64 to 128	16 (≈ 45.8 µM)	

Source: ChEMBL document CHEMBL4052825, “Identification of Novel Coumestan Derivatives as Polyketide Synthase 13 Inhibitors against Mycobacterium tuberculosis” (J Med Chem, 2018)
